# Source: publication PMC5760651, “Peptidomimetic blockade of MYB in acute myeloid leukemia” (Nature Communications, 2018)
# Non-standard residues stand in square brackets, D forms with d. Residues, ends and D or L forms follow the SMILES beside them.
# Legend:
# C57BL/6J mice = experiment: Peripheral blood counts after 7 days of treatment; type: in vivo, mouse; conditions: 25 mg/kg IP daily
# Experimental: All mouse experiments were carried out in accordance with the Memorial Sloan Kettering Institutional Animal Care and Use Committee. For toxicity studies, female C57BL/6J mice (The Jackson Laboratory, Bar Harbor, Maine, USA) were treated with MYBMIM peptide suspended in PBS and administered daily through intraperitoneal injection at a dose of 25 mg/kg for a total of 7 days. Mice were sacrificed at the end of treatment for hematologic, biochemical and histologic analyses. For pharmacokinetic studies, C57BL/6J mice (The Jackson Laboratory, Bar Harbor, Maine, USA) were treated with a single IP injection of 25 mg/kg BIO-MYBMIM, and blood plasma was collected 30 min, 2 h, 4 h, and 24 h post-injection. Quantification of BIO-MYBMIM was measured using the Quant-Tag Biotin kit (Vector Labs, cat. # BDK-2000) following the manufacturer instructions. For patient-derived xenografts, two hundred thousand primary AML MLL-rearranged leukemia cells were suspended in […] of PBS and transplanted via tail vein injection into 8-week-old sublethally irradiated (200 rad) female NOD.Cg-Prkdc(scid)Il2rg(tm1Wjl)/SzJ mice (The Jackson Laboratory, Bar Harbor, Maine, USA). […] Mice were treated from days 3–17 of this study for a total of 14 days and then monitored daily with clinical examination for survival analysis.
# MV-411 cells = experiment: MYB ChIP-seq; type: cell-based, human; conditions: 20 µM, 6 h, 3 biological replicates
# Experimental: ChIP was performed as previously described. Briefly, cells were fixed in 1% formalin in phosphate-buffered saline (PBS) for 10 minutes at room temperature. Glycine (125 mM final concentration) and Tris-HCl pH 8 (100 mM final concentration) were added to the cells and cells were washed twice in ice-cold PBS and resuspended in sodium dodecyl sulfate (SDS) lysis buffer (1% SDS, 10 mM EDTA, 50 mM Tris–HCl, pH 8.1). Lysates were sonicated using the Covaris S220 adaptive focused sonicator to obtain 100–500 bp chromatin fragments (Covaris, Woburn, CA). Lysates containing sheared chromatin fragments were resuspended in 0.01% SDS, 1.1% Triton-X100, 1.2 mM EDTA, 16.7 mM Tris–HCl, pH 8.1,167 mM NaCl. Lysates and antibody-coupled beads were incubated over night at 4 °C. […] Libraries were sequenced on the Illumina HiSeq 2500 instruments, with 30 million 2 × 50 bp paired reads.
# For ChIP-seq analysis, reads were quality and adapter trimmed using ‘trim_galore’ before aligning to human genome assembly hg19 with bwa mem using the default parameters. Aligned reads with the same start position and orientation were collapsed to a single read before subsequent analysis. Density profiles were created by extending each read to the average library fragment size and then computing density using the BEDTools suite. Enriched regions were discovered using MACS 2.0 and scored against matched input libraries. […]
# MV411 and MOLM-13 cells = experiment: Western blot of BCL2 protein; type: cell-based, human; conditions: 20 μM, 6 hours and 24 hours
# Experimental: Cells were lysed in RIPA buffer (Thermo Fisher) supplemented with a protease inhibitor mix comprised of AEBSF (0.5 mM concentration, Santa Cruz, SC-202041B), Bestatin (0.01 mM, Fisher/Alfa Aesar, J61106-MD), Leupeptin (0.1 mM, Santa Cruz, SC-295358B), and Pepstatin (0.001 mM, Santa Cruz, SC-45036A). Lysates were mechanically disrupted using Covaris S220 adaptive focused sonicator, according to the manufacturer’s instructions (Covaris, Woburn, CA). Lysates were cleared by centrifugation for 15 min at 18,000 × g and clarified lysates were quantified using the bicinchoninic acid assay (Pierce). Clarified lysates (20 μg of protein) were resolved using sodium dodecyl sulfate-polyacrylamide gel electrophoresis, and electroeluted using the Immobilon FL PVDF membranes (Millipore, Billerica, MA, USA). Membranes were blocked using the Odyssey Blocking buffer (Li-Cor, Lincoln, Nebraska, USA). […] Blotted membranes were visualized using secondary antibodies conjugated to IRDye 800CW or IRDye 680RD (Goat anti-rabbit, 1:15,000, and goat anti-mouse, 1:15,000) and the Odyssey CLx fluorescence scanner, according to manufacturer’s instructions (Li-Cor, Lincoln, Nebraska, USA).
# Supplementary Figure 9. BCL2 expression as measured by Western blot in MV411 and […]
# ImageJ. BCL2 protein expression is quantified as a fraction of its respective PBS control […]
smiles,measurement,setting,value
CC[C@@H](C)[C@@H](NC(=O)[C@@H](CCCCN)NC(=O)[C@@H](CCC(=O)O)NC(=O)[C@@H](CC(C)C)NC(=O)[C@@H](CCC(=O)O)NC(=O)[C@@H](CC(C)C)NC(=O)[C@@H](CC(C)C)NC(=O)[C@@H](CC(C)C)NC(=O)[C@@H](CCSC)NC(=O)[C@@H](CO)NC(=O)[C@H](NC(=O)[C@@H](CCC(=O)O)NC(=O)[C@@H](CC(N)=O)NC(=O)[C@@H](CCC(=O)O)NC(=O)[C@@H](CC(C)C)NC(=O)[C@@H](CCCCN)NC(C)=O)[C@H](C)O)C(=O)N[C@H](CCCNC(=N)N)C(=O)N[C@H](CCCCN)C(=O)NCC(=O)NCC(=O)N[C@H](CCCNC(=N)N)C(=O)N[C@H](CCCNC(=N)N)C(=O)N[C@H](CCCNC(=N)N)C(=O)N[C@H](CCC(N)=O)C(=O)N[C@H](CCCNC(=N)N)C(=O)N[C@H](CCCNC(=N)N)C(=O)N[C@H](CCCCN)C(=O)N[C@H](CCCCN)C(=O)N[C@H](CCCNC(=N)N)C(=O)NCC(=O)N[C@H](Cc1ccc(O)cc1)C(N)=O [MYBMIM] (Ac-[dK][dL][dE][dN][dE][dT][dS][dM][dL][dL][dL][dE][dL][dE][dK][dI][dR][dK]GG[dR][dR][dR][dQ][dR][dR][dK][dK][dR]G[dY]-NH2),"Peripheral blood counts (total leukocytes, lymphocytes, platelets, blood hemoglobin)",C57BL/6J mice,no significant changes
same,MYB complexes bound to promoters and enhancers eliminated,MV-411 cells,"2,690"
same,BCL2 protein abundance,MV411 and MOLM-13 cells,significant albeit modest decrease
